From patent US9403874B2, “Peptides and use thereof” (IL YANG PHARM. CO.,LTD., priority 2012, dated 2016)

Experiments:
Format in all cases: cell-based
Settings in all cases: 100 ng/me of peptide; EBV-infected B cells stimulated with anti-CD150; ELISA of culture supernatant
[1] = tested on: IL-2; assay: Reduction of IL-2 secretion in activated B cells (ELISA)
Description: (§1) In order to determine the activity of the novel peptides synthesized in Example 1 for reducing the secretion of inflammatory cytokines, the activated pathogenic B cells were treated with each of the 18 types of synthesized novel peptides and the reduction in secretion of inflammatory cytokines from the B cells was monitored.
(§2) Specifically, in order to determine whether the novel peptides could weaken the pathogenic B cells which are involved in the development of disease symptoms, the in vitro B cells model which is similar to the joint infiltrative B cells of rheumatoid arthritis was used. The activated pathogenic B cell was generated by stimulating Ebstein Barr virus (EBV)-infected B cells with anti-CD150 antibodies, and the cells were treated with […] of each of the 18 types of novel peptide.
(§3) In order to confirm the effect of 18 types of novel peptides in reducing inflammatory cytokines, the secretion amount of various cytokines (IL-1A, IL-1B, IL-2, IL-4, IL-5, IL-6, IL-8, IL-10, IL-12A, IL-13, IL-17A, GM-CSF, IL-34) secreted from the activated B cells was measured. The supernatants of B cell culture were analyzed enzyme-linked immunosorbent assay (ELISA), and the difference in absorbance (450 nm-570 nm) of the color developing reagent was measured as test results. Based on the measured difference in absorbance (450 nm-570 nm) of the color developing reagent, the absorbance of cytokines secreted when treated with the 18 types of novel […] was calculated in percentage, while setting the absorbance corresponding to the cytokines secreted from the activated B cells stimulated by anti-CD150 as 100%.

[2] = tested on: IL-6; assay: Reduction of IL-6 secretion in activated B cells (ELISA)
Description: as §1, §2, §3

[3] = tested on: IL-13; assay: Reduction of IL-13 secretion in activated B cells (ELISA)
Description: as §1, §2, §3

[4] = tested on: GM-CSF; assay: Reduction of GM-CSF secretion in activated B cells (ELISA)
Description: as §1, §2, §3

[5] = tested on: IL-12A; assay: Reduction of IL-12A secretion in activated B cells (ELISA)
Description: as §1, §2, §3

[6] = tested on: IL-1A; assay: Reduction of IL-1A secretion in activated B cells (ELISA)
Description: as §1, §2, §3

[7] = tested on: IL-1B; assay: Reduction of IL-1B secretion in activated B cells (ELISA)
Description: as §1, §2, §3

[8] = tested on: IL-5; assay: Reduction of IL-5 secretion in activated B cells (ELISA)
Description: as §1, §2, §3

[9] = tested on: IL-17A; assay: Reduction of IL-17A secretion in activated B cells (ELISA)
Description: as §1, §2, §3

[10] = tested on: IL-4; assay: Reduction of IL-4 secretion in activated B cells (ELISA)
Description: as §1, §2, §3

[11] = tested on: IL-34; assay: Reduction of IL-34 secretion in activated B cells (ELISA)
Description: as §1, §2, §3

[12] = tested on: IL-10; assay: Reduction of IL-10 secretion in activated B cells (ELISA)
Description: as §1, §2, §3

[13] = tested on: IL-8; assay: Reduction of IL-8 secretion in activated B cells (ELISA)
Description: as §1, §2, §3

Substance: DGRTDG (SIS-1#9 peptide)
- Inhibition rate of each cytokine compared to CD150-stimulated EBV-t B cells (%) IL-2 [1]: 15.5%
- Inhibition rate of each cytokine compared to CD150-stimulated EBV-t B cells (%) IL-6 [2]: 18.8%
- Inhibition rate of each cytokine compared to CD150-stimulated EBV-t B cells (%) IL-13 [3]: 13.2%
- Inhibition rate of each cytokine compared to CD150-stimulated EBV-t B cells (%) GM-CSF [4]: 15.0%
- Inhibition rate of each cytokine compared to CD150-stimulated EBV-t B cells (%) IL-12A [5]: 20.8%
- Inhibition rate of each cytokine compared to CD150-stimulated EBV-t B cells (%) IL-1A [6]: 20.4%
- Inhibition rate of each cytokine compared to CD150-stimulated EBV-t B cells (%) IL-1B [7]: 18.2%
- Inhibition rate of each cytokine compared to CD150-stimulated EBV-t B cells (%) IL-5 [8]: 16.2%
- Inhibition rate of each cytokine compared to CD150-stimulated EBV-t B cells (%) IL-17A [9]: 9.2%
- Inhibition rate of each cytokine compared to CD150-stimulated EBV-t B cells (%) IL-4 [10]: 16.0%
- Inhibition rate of each cytokine compared to CD150-stimulated EBV-t B cells (%) IL-34 [11]: 15.0%
- Inhibition rate of each cytokine compared to CD150-stimulated EBV-t B cells (%) IL-10 [12]: 14.2%
- Inhibition rate of each cytokine compared to CD150-stimulated EBV-t B cells (%) IL-8 [13]: 15.4%

Substance: GRTDG (SIS-1#10 peptide)
- Inhibition rate of each cytokine compared to CD150-stimulated EBV-t B cells (%) IL-2 [1]: 11.4%
- Inhibition rate of each cytokine compared to CD150-stimulated EBV-t B cells (%) IL-6 [2]: 25.0%
- Inhibition rate of each cytokine compared to CD150-stimulated EBV-t B cells (%) IL-13 [3]: 25.7%
- Inhibition rate of each cytokine compared to CD150-stimulated EBV-t B cells (%) GM-CSF [4]: 13.0%
- Inhibition rate of each cytokine compared to CD150-stimulated EBV-t B cells (%) IL-12A [5]: 29.8%
- Inhibition rate of each cytokine compared to CD150-stimulated EBV-t B cells (%) IL-1A [6]: 7.8%
- Inhibition rate of each cytokine compared to CD150-stimulated EBV-t B cells (%) IL-1B [7]: 4.2%
- Inhibition rate of each cytokine compared to CD150-stimulated EBV-t B cells (%) IL-5 [8]: 24.2%
- Inhibition rate of each cytokine compared to CD150-stimulated EBV-t B cells (%) IL-17A [9]: 25.0%
- Inhibition rate of each cytokine compared to CD150-stimulated EBV-t B cells (%) IL-4 [10]: 19.5%
- Inhibition rate of each cytokine compared to CD150-stimulated EBV-t B cells (%) IL-34 [11]: 27.0%
- Inhibition rate of each cytokine compared to CD150-stimulated EBV-t B cells (%) IL-10 [12]: 7.5%
- Inhibition rate of each cytokine compared to CD150-stimulated EBV-t B cells (%) IL-8 [13]: 17.9%

Substance: MSLPSP (SIS-1#1 peptide)
- Inhibition rate of each cytokine compared to CD150-stimulated EBV-t B cells (%) IL-2 [1]: 13.5%
- Inhibition rate of each cytokine compared to CD150-stimulated EBV-t B cells (%) IL-6 [2]: 19.2%
- Inhibition rate of each cytokine compared to CD150-stimulated EBV-t B cells (%) IL-13 [3]: 15.0%
- Inhibition rate of each cytokine compared to CD150-stimulated EBV-t B cells (%) GM-CSF [4]: 18.0%
- Inhibition rate of each cytokine compared to CD150-stimulated EBV-t B cells (%) IL-12A [5]: 19.8%
- Inhibition rate of each cytokine compared to CD150-stimulated EBV-t B cells (%) IL-1A [6]: 7.8%
- Inhibition rate of each cytokine compared to CD150-stimulated EBV-t B cells (%) IL-1B [7]: 9.3%
- Inhibition rate of each cytokine compared to CD150-stimulated EBV-t B cells (%) IL-5 [8]: 18.5%
- Inhibition rate of each cytokine compared to CD150-stimulated EBV-t B cells (%) IL-17A [9]: 24.8%
- Inhibition rate of each cytokine compared to CD150-stimulated EBV-t B cells (%) IL-4 [10]: 19.8%
- Inhibition rate of each cytokine compared to CD150-stimulated EBV-t B cells (%) IL-34 [11]: 18.8%
- Inhibition rate of each cytokine compared to CD150-stimulated EBV-t B cells (%) IL-10 [12]: 7.2%
- Inhibition rate of each cytokine compared to CD150-stimulated EBV-t B cells (%) IL-8 [13]: 17.5%

Substance: MSLPSPRDGRTDG (SIS-1#4 peptide)
- Inhibition rate of each cytokine compared to CD150-stimulated EBV-t B cells (%) IL-2 [1]: 18.8%
- Inhibition rate of each cytokine compared to CD150-stimulated EBV-t B cells (%) IL-6 [2]: 32.3%
- Inhibition rate of each cytokine compared to CD150-stimulated EBV-t B cells (%) IL-13 [3]: 23.1%
- Inhibition rate of each cytokine compared to CD150-stimulated EBV-t B cells (%) GM-CSF [4]: 18.5%
- Inhibition rate of each cytokine compared to CD150-stimulated EBV-t B cells (%) IL-12A [5]: 33.9%
- Inhibition rate of each cytokine compared to CD150-stimulated EBV-t B cells (%) IL-1A [6]: 18.1%
- Inhibition rate of each cytokine compared to CD150-stimulated EBV-t B cells (%) IL-1B [7]: 16.5%
- Inhibition rate of each cytokine compared to CD150-stimulated EBV-t B cells (%) IL-5 [8]: 20.4%
- Inhibition rate of each cytokine compared to CD150-stimulated EBV-t B cells (%) IL-17A [9]: 43.0%
- Inhibition rate of each cytokine compared to CD150-stimulated EBV-t B cells (%) IL-4 [10]: 20.8%
- Inhibition rate of each cytokine compared to CD150-stimulated EBV-t B cells (%) IL-34 [11]: 16.8%
- Inhibition rate of each cytokine compared to CD150-stimulated EBV-t B cells (%) IL-10 [12]: 18.0%
- Inhibition rate of each cytokine compared to CD150-stimulated EBV-t B cells (%) IL-8 [13]: 32.0%
